Measured values published in ChEMBL document CHEMBL1136352, “Synthesis of 2-fluoronoraristeromycin and its inhibitory activity against Plasmodium falciparum S-adenosyl-L-homocysteine hydrolase” (Bioorg Med Chem Lett, 2003).

Columns and labels:
FM3A = test: Inhibitory activity against mammalian FM3A cell; type: functional, cell-based; details: Mus musculus
Plasmodium falciparum = test: Inhibitory activity against Plasmodium falciparum; type: functional, organism-based
Adenosylhomocysteinase [1] = target: Adenosylhomocysteinase (Homo sapiens, UniProt P23526); test: Inhibitory activity against human S-adenosyl-L-homocysteine hydrolase
Adenosylhomocysteinase [2] = target: Adenosylhomocysteinase (Plasmodium falciparum 3D7, UniProt P50250); test: Inhibitory activity against Plasmodium falciparum S-adenosyl-L-homocysteine hydrolase
Adenosylhomocysteinase (Plasmodium falciparum 3D7, UniProt P50250), sequence (P50250 whole entry): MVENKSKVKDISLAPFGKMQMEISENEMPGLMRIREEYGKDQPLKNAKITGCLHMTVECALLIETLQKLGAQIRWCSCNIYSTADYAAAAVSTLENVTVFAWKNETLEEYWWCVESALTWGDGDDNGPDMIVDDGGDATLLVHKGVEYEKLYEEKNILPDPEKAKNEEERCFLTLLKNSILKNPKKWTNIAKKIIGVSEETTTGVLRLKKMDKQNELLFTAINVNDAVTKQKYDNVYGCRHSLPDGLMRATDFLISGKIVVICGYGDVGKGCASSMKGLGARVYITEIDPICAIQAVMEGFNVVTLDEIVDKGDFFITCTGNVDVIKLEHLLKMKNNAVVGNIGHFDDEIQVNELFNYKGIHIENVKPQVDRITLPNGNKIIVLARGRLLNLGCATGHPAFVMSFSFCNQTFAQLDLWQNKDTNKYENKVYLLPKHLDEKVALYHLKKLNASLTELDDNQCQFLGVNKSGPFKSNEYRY

Adenosylhomocysteinase (Homo sapiens, UniProt P23526), sequence (P23526 whole entry): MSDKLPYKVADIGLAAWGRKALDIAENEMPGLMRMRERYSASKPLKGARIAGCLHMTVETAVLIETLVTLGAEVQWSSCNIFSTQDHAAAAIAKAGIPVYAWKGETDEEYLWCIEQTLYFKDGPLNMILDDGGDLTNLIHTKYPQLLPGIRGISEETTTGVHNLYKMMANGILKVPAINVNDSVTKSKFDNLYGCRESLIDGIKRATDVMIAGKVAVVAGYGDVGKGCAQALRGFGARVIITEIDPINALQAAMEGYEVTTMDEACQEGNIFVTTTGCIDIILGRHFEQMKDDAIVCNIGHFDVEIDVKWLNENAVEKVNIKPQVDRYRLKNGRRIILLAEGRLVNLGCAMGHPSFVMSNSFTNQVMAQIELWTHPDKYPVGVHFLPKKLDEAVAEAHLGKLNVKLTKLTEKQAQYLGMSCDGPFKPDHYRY

| Compound | EC50 (FM3A) [µM] | EC50 (Plasmodium falciparum) [µM] | IC50 (Adenosylhomocysteinase [1]) [µM] | Ki (Adenosylhomocysteinase [1]) [µM] | IC50 (Adenosylhomocysteinase [2]) [µM] | Ki (Adenosylhomocysteinase [2]) [µM] |
| --- | --- | --- | --- | --- | --- | --- |
| Nc1nc(F)nc2c1ncn2[C@@H]1C[C@H](O)[C@@H](O)[C@H]1O | 7.2 | 7.4 | 63 | 7.9 | 13 | 0.48 |
| Nc1ncnc2c1ncn2[C@@H]1C[C@H](O)[C@@H](O)[C@H]1O [NORARISTEROMYCIN] | 0.072 | 7.4 | 1.1 | 0.16 | 3.1 | 0.18 |
